According to patent US12466821B2 (Novartis AG, priority 2018, dated 2025):

Key:
[1] = system: Luciferase-encoding HCMV, AD169 strain; experiment: CMV Luciferase assay (cellular herpesvirus replication); format: cell-based; conditions: Human betaherpesvirus 5, AD169, read-out: CMV-Luc Cellular EC50
Method: For all viral assays, 10 mM DMSO stock compound solutions were serially diluted in DMSO at 3.16 fold dilutions in 96-well clear round bottom plates. Compounds were then diluted in assay media at 1:20 and subsequently 10 μL of these dilutions were added to cells for final compound concentrations ranging either from 0.0159 μM to 50 μM in 0.5% DMSO/assay media, or from 0.00318 to 10 μM in 0.5% DMSO/assay media.
The assay uses a Luciferase-encoding HCMV. Luciferase is expressed under the control of a late viral gene (pp28) promoter in the AD169 strain, so that expression of the reporter is dependent on viral DNA replication. Compounds that affect any stage from viral entry to DNA replication result in a change in luciferase levels.
Viral replication in the presence or absence of compounds was measured by luciferase activity according to the following procedure: Neo-natal normal human dermal fibroblast cells (NN-NHDF, from ATCC cat #201-010) were seeded at 9,000 cells/well in 96-well white solid bottom plate at 80 uL/well in assay media: 2% FBS, 4 mM GlutaMax® (Invitrogen cat #35050) in DMEM/high glucose/no glutamine/no phenol red media (Invitrogen cat #31053). After 2 hrs at 37° C., 10 uL of compound diluted in assay media or 5% DMSO (final 0.5% DMSO/well) was added and the plates returned to 37° C. One hour later, 10 uL of virus diluted in assay media was added at a final Multiplicity of infection (MOI) of 1. Plates were incubated at 37° C. for 72 hrs. At 72 hours post-infection (hpi), plates were equilibrated to room temperature. After 25 min, 100 uL Renilla-Glo® Luciferase Assay Reagent (Promega cat # E2750) was added to each well and incubated for 10 min. Plates were covered to protect from light. Luminescence was measured on the PHERAstar FS®.
The following controls were included in the data analysis: No virus, no compound (0.5% DMSO)=IC (maximal inhibitory control); Virus, no compound (0.5% DMSO)=NC (neutral control). Data were analyzed using an internal Novartis software (Helios). The means of the controls (NC, IC) were used to normalize the results to a % scale using the formula: % Control=100−(100*(Sample value−NC)/(IC−NC)).
For each compound, the software derived an EC50 using a 4-parameter logistical model.

[2] = molecular target: human CMV DNA polymerase UL54 (Human cytomegalovirus (strain AD169) (HHV-5) (Human herpesvirus 5), UniProt P08546); experiment: CMV polymerase biochemical assay (molecular beacon-based)
Method: (§1) Both human CMV DNA polymerase UL54 and human HSV DNA polymerase UL30 were produced as N-terminal MBP fusion of the full length, wild type recombinant proteins in order to enhance soluble expression in insect cell expression system. The proteins were expressed in sf9 insect cells via baculovirus transduction and cells were harvested after 48 hours. The soluble proteins were purified using the standard Ni-IMAC purification strategy via the N-terminal hexa-Histidine tag, followed by heparin affinity chromatography. Both of the final MBP fusion proteins were more than 90% pure and the yield of UL54 was up to 1.8 mg per liter culture while UL30 was up to 15 mg per liter culture. All purification steps were performed on ice, with buffers chilled on ice and FPLC fraction collectors set at 6° C. […] UL30 protein was stored in buffer containing 20 mM HEPES, pH7.0, 420 mM NaCl, 20% glycerol, 6 mM Imidazole, and 0.8 mM DTT at−80° C.
(§2) DNA polymerase activity was measured using a molecular beacon-based assay, as described in Ma et. al.
(§3) 100 pM CMV polymerase or 625 pM HSV polymerase was added to a buffer containing 20 mM Tris, pH=7.5, 100 mM NaCl, 10 mM MgCl2, 0.01% Tween-20, 0.5 mM EDTA, 10% Sucrose and 1 mM DTT. The inhibitor was pre-incubated with the polymerase for 30 minutes at room temperature. Reactions were initiated by the addition of a mixture containing 1.25 uM dATP, 1.25 uM dCTP, 1.25 uM dTTP, 1.25 uM dGTP, 200 nM Primer B (5′-GAC GGG AAG-3′5′-GAC GGG AAG-3′) and 100 nM molecular beacon (5′-5,6-FAM-CCTCTCCGTGTCTTGTACTTCCCGTCAGAGAGG-BHQ1-3′). For human CMV polymerase the reactions were incubated for 60 minutes at room temperature. For HSV polymerase the reactions were incubated for 20 minutes at room temperature. The reactions were then read on a Perkin-Elmer EnVision 2101 reader (fluorescence) using an excitation of 480 nm and emission of 535 nm. 1050s were determined using an internal Novartis software (Helios).
as §3, with “nm.” for “nm. 1050s were determined using an internal Novartis software (Helios).”

[3] = molecular target: human HSV DNA polymerase UL30 (Human herpesvirus 1 (strain 17) (HHV-1) (Human herpes simplex virus 1), UniProt P04293); experiment: HSV polymerase biochemical assay (molecular beacon-based)
Method: as §1, §2, §3
as §3, with “nm.” for “nm. 1050s were determined using an internal Novartis software (Helios).”

| Compound | EC50 [1] [nM] | IC50 [2] [nM] | IC50 [3] [nM] |
| --- | --- | --- | --- |
| Cc1cc(C(=O)NCc2ccc(Cl)cc2)c(=O)n2c1C(=O)N(CC1(CS(C)(=O)=O)CC1)CC2 [Example 154] | 662 | – | – |
| CN(C)S(=O)(=O)C1(CN2CCn3c(ccc(C(=O)NCc4ccc(C#N)cc4)c3=O)C2=O)CC1 [Example 90-2] | 34 | – | – |
| CCc1cc(C(=O)NCc2ccc(Cl)cc2)c(=O)n2c1C(=O)N(CCN1CCCS1(=O)=O)CC2 [Example 135] | 749 | – | – |
| N#CCS(=O)(=O)C1(CN2CCn3c(ccc(C(=O)NCc4ccc(Cl)cc4)c3=O)C2=O)CC1 [Example 108-1, N-(4-Chlorobenzyl)-2-((1-((cyanomethyl)sulfonyl)cyclopropyl)methyl)-1,6-dioxo-2,3,4,6-tetrahydro-1H-pyrido[1,2-a]pyrazine-7-carboxamide] | 228 | – | – |
| O=C(NCc1ccc(Cl)cc1)c1cc(CC2CC2)c2n(c1=O)CCN(CCN1CCCS1(=O)=O)C2=O [Example 133, N-(4-chlorobenzyl)-9-(cyclopropylmethyl)-2-(2-(1,1-dioxidoisothiazolidin-2-yl)ethyl)-1,6-dioxo-1,3,4,6-tetrahydro-2H-pyrido[1,2-a]pyrazine-7-carboxamide] | 1020 | – | – |
| CS(=O)(=O)CCCN1CCn2c(c(CF)cc(C(=O)NCc3ccc(Cl)cc3)c2=O)C1=O [Example 142] | – | 351 | 2160 |
| CCN1CCn2c(ccc(C(=O)NCc3ccc(Cl)cc3)c2=O)C1=O [Example 113, N-(4-chlorobenzyl)-2-ethyl-1,6-dioxo-2,3,4,6-tetrahydro-1H-pyrido[1,2-a]pyrazine-7-carboxamide] | – | 3130 | 23600 |
| CS(=O)(=O)CCCN1CCn2c(c(Br)cc(C(=O)NCc3ccc(Cl)cc3)c2=O)C1=O [Example 123, 9-bromo-N-(4-chlorobenzyl)-2-(3-(methylsulfonyl)propyl)-1,6-dioxo-1,3,4,6-tetrahydro-2H-pyrido[1,2-a]pyrazine-7-carboxamide] | – | 373 | 1890 |
| N#Cc1ccc(CNC(=O)c2ccc3n(c2=O)CCN(CC2(S(=O)(=O)CCCO)CC2)C3=O)cc1F [Example 23] | 452 | – | – |
| CS(=O)(=O)C1(CN2CCn3c(c(F)cc(C(=O)NCc4ccc(Cl)cc4)c3=O)C2=O)CC1 [Example 167] | 57.3 | – | – |
| NC1(CN2CCn3c(ccc(C(=O)NCc4ccc(Cl)cc4)c3=O)C2=O)CC1 [Example 197] | 4790 | – | – |
| CS(=O)(=O)CC1(CN2CCn3c(c(F)cc(C(=O)NCc4ccc(Cl)cc4)c3=O)C2=O)CC1 [Example 168] | 1100 | – | – |
| CS(=O)(=O)CCN1CCn2c(ccc(C(=O)NCc3ccc(Cl)cc3)c2=O)C1=O [Example 51, N-(4-chlorobenzyl)-2-(2-(methylsulfonyl)ethyl)-1,6-dioxo-2,3,4,6-tetrahydro-1H-pyrido[1,2-a]pyrazine-7-carboxamide] | 1870 | – | – |
| O=C(NCc1ccc(Cl)cc1)c1cc(C2CC2)c2n(c1=O)CCN(CCN1CCCS1(=O)=O)C2=O [Example 131] | 949 | – | – |
| CS(=O)(=O)CCCN1CCn2c(c(C(F)(F)F)cc(C(=O)NCc3ccc(Cl)cc3)c2=O)C1=O [Example 146, N-(4-chlorobenzyl)-2-(3-(methylsulfonyl)propyl)-1,6-dioxo-9-(trifluoromethyl)-1,3,4,6-tetrahydro-2H-pyrido[1,2-a]pyrazine-7-carboxamide] | 47200 | – | – |
| Cc1cc(C(=O)NCc2ccc(Cl)cc2)c(=O)n2c1C(=O)N(CC1(N3CCCS3(=O)=O)CC1)CC2 [Example 150] | 67.7 | – | – |
| CN(C)C(=O)C1(CN2CCn3c(ccc(C(=O)NCc4ccc(Cl)cc4)c3=O)C2=O)CC1 [Example 209] | 2490 | – | – |
| COC1(S(=O)(=O)C2(CN3CCn4c(ccc(C(=O)NCc5ccc(Cl)cc5)c4=O)C3=O)CC2)CC1 [Example 188] | 11.6 | 0.8 | – |
| CCOC(=O)C1(CN2CCn3c(ccc(C(=O)NCc4ccc(Cl)cc4)c3=O)C2=O)CC1 [Example 207, ethyl 1-((7-((4-chlorobenzyl)carbamoyl)-1,6-dioxo-1,3,4,6-tetrahydro-2H-pyrido[1,2-a]pyrazin-2-yl)methyl)cyclopropane-1-carboxylate] | 3790 | – | – |
| CS(=O)(=O)C1(CCN2CCn3c(c(F)cc(C(=O)NCc4ccc(Cl)cc4)c3=O)C2=O)CC1 [Example 165] | 10000 | – | – |
| O=C(NCc1ccc(Cl)cc1)c1cc(C(F)F)c2n(c1=O)CCN(CCN1CCCS1(=O)=O)C2=O [Example 144] | 10400 | – | – |
| CS(=O)(=O)CCCN1CCn2c(c(C3CC3)cc(C(=O)NCc3ccc(Cl)cc3)c2=O)C1=O [Example 130] | 13300 | – | – |
| O=C(NCc1ccc(Cl)cc1)c1ccc2n(c1=O)CCN(CC1(C(=O)N3CCC3)CC1)C2=O [Example 208, 2-((1-(azetidine-1-carbonyl)cyclopropyl)methyl)-N-(4-chlorobenzyl)-1,6-dioxo-1,3,4,6-tetrahydro-2H-pyrido[1,2-a]pyrazine-7-carboxamide] | 5180 | – | – |
| O=C(NCc1ccc(Cl)cc1)c1ccc2n(c1=O)CCN(CC1(C(=O)N3CCOCC3)CC1)C2=O [Example 211] | 7810 | – | – |
| CC(CCO)S(=O)(=O)C1(CN2CCn3c(ccc(C(=O)NCc4ccc(Cl)cc4)c3=O)C2=O)CC1 (stereo not drawn) [Example 4, N-(4-chlorobenzyl)-2-((1-((4-hydroxybutan-2-yl)sulfonyl)cyclopropyl)methyl)-1,6-dioxo-2,3,4,6-tetrahydro-1H-pyrido[1,2-a]pyrazine-7-carboxamide] | 40.4 | 0.4 | – |
| CS(=O)(=O)C1(CCN2CCn3c(ccc(C(=O)NCc4ccc(Cl)cc4)c3=O)C2=O)CC1 [Example 170, N-(4-chlorobenzyl)-2-(2-(1-(methylsulfonyl)cyclopropyl)ethyl)-1,6-dioxo-1,3,4,6-tetrahydro-2H-pyrido[1,2-a]pyrazine-7-carboxamide] | 9030 | – | – |
| Cc1cc(C(=O)NCc2ccc(Cl)cc2)c(=O)n2c1C(=O)N(CCC1(S(C)(=O)=O)CC1)CC2 [Example 151] | 10000 | – | – |
| CN(CCN1CCn2c(c(F)cc(C(=O)NCc3ccc(Cl)cc3)c2=O)C1=O)S(C)(=O)=O [Example 160, N-(4-chlorobenzyl)-9-fluoro-2-(2-(N-methylmethylsulfonamido)ethyl)-1,6-dioxo-1,3,4,6-tetrahydro-2H-pyrido[1,2-a]pyrazine-7-carboxamide] | 3600 | – | – |
